Results published in US11786464B2, “PH responsive block copolymer compositions and micelles that inhibit MCT 1 and related proteins” (The Board of Regents of the University of Texas System, priority 2020, dated 2023).
Where two headings read alike, the source gives them in different places.

Experiments:
in vivo = type: in vivo, mice; settings: for concentration at 24 h: tumor tissue 24 h after administration, read-out: tumor accumulation of AZD3965
Description: Mouse plasma were collected and added into 1 mL of methanol/water mixture (80/20, v/v) at 0.5, 6 and 24 h after treatment by different regimens. Tissues (heart, liver, kidney and tumor) were collected at 24 h. About 100 mg of tissues were removed, and the wet weight was recorded. The tissues were homogenized in 1 mL of methanol/water mixture (80/20, v/v). The plasma and tissue mixture were centrifuged and the supernatant was collected respectively, dried by a SpeedVac, then dissolved in methanol and measured by HPLC.

TC-1 cells = test: Measurement of lactate and pH in the cell culture medium; type: cell-based; settings: 1 μM (effective) AZD3965, 24 h, added directly (intact NPs), vs untreated control
Description: All animal procedures were performed with ethical compliance and approval by the Institutional Animal Care and Use Committee at the University of Texas Southwestern Medical Center. Cells were cultured in DMEM medium (10% fetal bovine serum, 100 U/mL penicillin G sodium and 100 μg/mL streptomycin (Pen/Strep), non-essential amino acids, and 20 μM β-mercaptoethanol (β-ME)) at 37° C. in 5% CO2 and the normal level of O2.
For lactate measurement, TC-1 cells were cultured in normal DMEM medium as described above with different drugs: free AZD3965 (1 uM), intact AZD-UPS NPs (1 uM effective AZD3965 concentration), or pretreatment of AZD-UPS NPs in pH 6.0 buffer for pH-activated drug release followed by addition into the cell culture medium. After 24 h incubation, lactate concentration was measured by NOVA BioProfile 4. For pH measurement, TC-1 cells were cultured in DMEM medium (D5030, Sigma) without NaHCO3, and in incubator without CO2 for 24 h, followed by measurement of medium pH.

TC-1 tumor = test: Tumor growth and survival, TC-1 tumor model; type: in vivo; settings: TC-1 model, day 27
Description: Six to eight week old mice (n=5-7 for each group) were injected subcutaneously with TC-1 (2×10^5) or B16F10 (2×10^5) cells into the right flank. Animals were treated by 50 mg/kg AZD3965 (administered twice daily by oral gavage for a total of 7 days), or by AZD-UPS NPs (containing 2 mg/kg AZD3965, IV injected at days 7, 10 and 13). Some groups were intraperitoneally injected with 200 μg checkpoint inhibitors (anti-mPD-1, BioXcell, BE0146) for comparison or synergy evaluation. Tumor growth was subsequently measured twice a week using a digital caliper and calculated as 0.5×length×width×height by blinded investigators. Mouse weight was also recorded. Mice were sacrificed when the tumor volumes reached 1,500 mm^3.

[1] = Toxicity analysis (body weight, cTnI, ALT, AST) in tumor-bearing mice; type: in vivo
Description: Six to eight week old mice (n=5-7 for each group) were injected subcutaneously with TC-1 (2×10^5) or B16F10 (2×10^5) cells into the right flank. […] Some groups were intraperitoneally injected with 200 μg checkpoint inhibitors (anti-mPD-1, BioXcell, BE0146) for comparison or synergy evaluation. Tumor growth was subsequently measured twice a week using a digital caliper and calculated as 0.5×length×width×height by blinded investigators. Mouse weight was also recorded. Mice were sacrificed when the tumor volumes reached 1,500 mm^3.
Blood of different mouse groups were collected after 4 h. Then alanine transaminase activity assay (Abcam, ab105134), aspartate aminotransferase activity assay (Abcam, ab105135), and mouse cardiac troponin-I ELISA analysis (Life Diagnostics, Inc., Cat. No. CTNI-1-HS) were performed.

[2] = oral administration 50 mg/kg for 7 days, serum 4 h after last treatment, vs untreated

For `Cc1[nH]nc(C(F)(F)F)c1Cc1sc2c(c1C(=O)N1C[C@](C)(O)CO1)c(=O)n(C)c(=O)n2C(C)C` [AZD3965], the clearance from plasma (in vivo; intravenous injection 2 mg/kg) was “rapid clearance of the drug”, the AUC (in vivo; mouse, intravenous 2 mg/kg AZD3965, plasma, read-out: area under the concentration-time (AUC) value) was 5.4 ± 2.5 µg·h/mL and the concentration at 24 h (in vivo; mouse, intravenous 2 mg/kg) was 290 ± 120 ng/g. The concentration at 24 h (in vivo; mouse, oral administration 100 mg/kg (50-fold higher dose)) was 4000 ± 3500 ng/g, the “peak drug plasma concentration” value (in vivo; oral administration 100 mg/kg, at 30 min, TC-1 tumor-bearing mice) was 47 ± 27 µg/mL and the “lactate secretion into culture medium” value (TC-1 cells) was “significantly decreased the secretion of lactate”. The “pH change of culture medium” value (TC-1 cells) was “inhibited the lowering of pH in the medium”, the tumor volume (TC-1 tumor; oral 50 mg/kg twice daily for 7 days, p=0.09 vs untreated) was 9.2±4.1×10^2 mm^3 and the tumor volume (TC-1 tumor; oral AZD3965 in combination with anti-PD1) was 8.0±3.1×10^2 mm^3. For the same compound, the “level of alanine aminotransferase (ALT)” value [1, 2] was “significantly increased”, the “level of aspartate aminotransferase (AST)” value [1, 2] was “significantly increased” and the “level of cardiac troponin-I (cTnI)” value [1, 2] was “significantly increased”. The body weight ([1]; oral administration, two weeks of treatment) was “did not cause weight loss”.
